Test results: patent US7612201B2, “Pyrazole compounds” (Vernalis (Cambridge) Limited, priority 2002, dated 2009)

Target: T1, yeast HSP90 (Saccharomyces cerevisiae, UniProt P02829)
T1 construct: made in house; host or cells: E. coli
Assay: Malachite green ATPase assay
Assay type: biochemical
Conditions: activity range
Source text: The intrinsic ATPase activity of HSP90 may be measured using yeast HSP90 as a model system. The assay, based on the use of malachite green for the measurement of inorganic phosphate, was used to test the HSP90 inhibitory activity of the compounds of the Examples herein.
Malachite Green ATPase Assay
Chemicals are of the highest purity commercially available and all aqueous solutions are made up in AR water. Because of the need to minimise contamination with inorganic phosphate, precautions should be taken with solutions and apparatus used in the assays. Glassware and pH meters are rinsed with double distilled or deionised water before use and, wherever possible, plastic ware should be used. Gloves are worn for all procedures. • (1) Greiner 384-well (Greiner 781101) or Costar 384-well flat-bottomed polystyrene multiwell plates (VWR). • (2) Assay buffer of (a) 100 mM Tris-HCl, pH 7.4, (b) 150 mM KCl, (c) 6 mM MgCl2. Stored at room temperature. • (3) 0.0812% (w/v) malachite green (M 9636, Sigma Aldrich Ltd., Poole, UK). Stored at room temperature. • (4) 2.32% (w/v) polyvinyl alcohol USP (P 1097, Sigma Aldrich Ltd, Poole, UK) in boiling water (see Comment 1), allowed to cool, and stored at room temperature. • (5) 5.72% (w/v) ammonium molybdate in 6 M hydrochloric acid. Stored at room temperature. • (6) 34% (w/v) sodium citrate. Stored at room temperature. • (7) 100 mM ATP, disodium salt, special quality (47699, Sigma Aldrich). Stored at −20° C. • (8) E. coli expressed yeast HSP90 protein, purified >95% (see, e.g., Panaretou et al., 1998) and stored in 50 uL aliquots at −80° C.
Method • 1. Dilute test compounds to 500 μM in AR water (DMSO concentration will be 2.5%). Transfer 2.5 μl of these compounds directly from the daughter plate to the assay plate, giving a final assay concentration of 100 μM. To obtain 12 point IC50 values, perform serial dilutions 1:2 to produce a range of assay concentrations from 100 μM to 97.6 nM (2.5% DMSO), and transfer 2.5 μl of each concentration into the assay plate. Column 1 in the assay plate contains no compound, as a negative control. An additional row with no compound is also used as a background. • 2. Prepare ATP by diluting 100 mM stock to 925 μM with assay buffer, and aliquot 5 μl of diluted ATP to each well including controls (final assay concentration 370 μM). • 3. Add 5 μl of buffer to background row. • 4. Dilute enzyme preparation to 1.05 μM with assay buffer, and aliquot 5 μl into each compound well and to the negative control column. • 5. Collect the reagents to the bottom of the well, cover plate with plate seal and incubate overnight at 37 degC. • 6. First thing in the morning prepare the Malachite Green Reagent. Add 2 parts of Malachite Green Solution, 1 part of Polyvinyl Alcohol Solution, 1 part of Ammonium Molybdate Solution, and 2 parts of AR water. • 7. Invert to mix, and leave for approximately 1 hour until the colour turns from brown to golden yellow. • 8. Add 40 μl of Malachite Green Reagent to each well, allow 5 mins for colour to develop. • 9. Add 5 μl of Sodium Citrate Reagent to each well (see comment 2) • 10. Re-cover with plate seal and shake on plate shaker for at least 15 mins. • 11. Measure Absorbance at 620 nm using a suitable plate reader (e.g. Victor, Perkin Elmer Life Sciences, Milton Keynes, UK).
Comments • (1) The polyvinyl alcohol dissolves in boiling water with difficulty and stirring for 2-3 h is required. • (2) The time interval between addition of the malachite green reagent and the sodium citrate should be kept as short as possible in order to reduce the non-enzymatic hydrolysis of ATP. Once the sodium citrate is added, the colour is stable for up to 4 h at room temperature. • (3) Compounds can be added to the assay plates using a Biomek FX Robot (Beckman Coulter).

T1 sequence (P02829 whole entry): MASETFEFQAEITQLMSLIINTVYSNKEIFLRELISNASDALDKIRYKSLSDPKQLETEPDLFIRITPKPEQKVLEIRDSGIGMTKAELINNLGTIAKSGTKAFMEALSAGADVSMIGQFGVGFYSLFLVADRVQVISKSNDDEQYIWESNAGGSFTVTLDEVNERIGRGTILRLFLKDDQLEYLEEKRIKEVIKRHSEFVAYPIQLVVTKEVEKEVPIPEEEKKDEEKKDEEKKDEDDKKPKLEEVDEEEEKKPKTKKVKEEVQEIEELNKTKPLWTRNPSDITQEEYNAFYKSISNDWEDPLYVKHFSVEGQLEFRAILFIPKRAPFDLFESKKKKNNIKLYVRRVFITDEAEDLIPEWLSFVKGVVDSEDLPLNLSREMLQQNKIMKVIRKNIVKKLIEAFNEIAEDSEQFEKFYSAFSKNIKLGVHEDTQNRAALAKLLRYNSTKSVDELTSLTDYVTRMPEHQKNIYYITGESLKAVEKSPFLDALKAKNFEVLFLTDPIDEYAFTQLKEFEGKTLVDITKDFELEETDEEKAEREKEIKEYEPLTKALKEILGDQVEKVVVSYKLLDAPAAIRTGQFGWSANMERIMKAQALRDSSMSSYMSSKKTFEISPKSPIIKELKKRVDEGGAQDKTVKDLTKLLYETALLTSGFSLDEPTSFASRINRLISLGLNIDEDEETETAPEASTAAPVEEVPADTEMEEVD

First: Oc1cc(O)c(-c2n[nH]cc2N2CCNCC2)cc1Cl [Example 2, 4-Chloro-6-(4-piperazin-1-yl-1H-pyrazol-3-yl)-benzene-1,3-diol]
Second: Oc1cc(F)ccc1-c1n[nH]cc1N1CCNCC1 [Example 52, 3-(4-Fluoro-2-hydroxyphenyl)-4-(piperazin-1-yl)-1H-pyrazole]
The IC50 of the first is lower: under 50 µM for the first, over 50 µM for the second. The first is the more potent here.

`O=C(O)c1cccc(CN2CCN(c3c[nH]nc3-c3cc(Cl)c(O)cc3O)CC2)c1` [Example 29] and `O=C(O)c1ccc(CN2CCN(c3c[nH]nc3-c3cc(Cl)c(O)cc3O)CC2)o1` [Example 28] cannot be ordered by IC50: under 50 µM for the first, under 50 µM for the second.

First: Oc1cc(O)c(-c2n[nH]cc2N2CCN(Cc3ccco3)CC2)cc1Cl [Example 5, 4-Chloro-6-[4-(4-furan-2-ylmethyl-piperazin-1-yl)-1H-pyrazol-3-yl]-benzene-1,3-diol]
Second: COC(=O)c1ccc(CN2CCN(c3c[nH]nc3-c3cc(Cl)c(O)cc3O)CC2)o1 [Example 15]
The IC50 of the first is higher: over 50 µM for the first, under 50 µM for the second.

`Oc1cc(O)c(-c2n[nH]cc2N2CCC(NCc3ccc(Br)cc3)CC2)cc1Br` [Example 85] and `Cc1cc(NC(=O)c2ccc(CN3CCN(c4c[nH]nc4-c4cc(Cl)c(O)cc4O)CC3)cc2)no1` [Example 37] cannot be ordered by IC50: under 50 µM for the first, under 50 µM for the second.

`CC(C)n1cc(N2CCNCC2)c(-c2cc(Br)c(O)cc2O)n1` [Example 61] and `CC(C)n1ncc(N2CCNCC2)c1-c1cc(Br)c(O)cc1O` [Example 60] cannot be ordered by IC50: over 50 µM for the first, over 50 µM for the second.

`Oc1cc(O)c(-c2n[nH]cc2N2CCNCC2)cc1CCc1ccccc1F` [Example 68] and `Cc1ccccc1CCc1cc(-c2n[nH]cc2N2CCNCC2)c(O)cc1O` [Example 75] cannot be ordered by IC50: under 50 µM for the first, under 50 µM for the second.

Target: T2, human full-length HSP90 (Homo sapiens, UniProt P08238)
T2 construct: E. coli expressed human full-length HSP90 protein; made in house; host or cells: E. coli
Assay: Fluorescence polarization (FP) binding assay
Conditions: FP assay (asterisk in table), activity range
Source text: Fluorescence Polarization Assay
Fluorescence polarization {also known as fluorescence anisotropy} measures the rotation of a fluorescing species in solution, where the larger molecule the more polarized the fluorescence emission. When the fluorophore is excited with polarized light, the emitted light is also polarized. The molecular size is proportional to the polarization of the fluorescence emission.
The fluoroscein-labelled probe—RBT0045864-FAM—
[drawing 121] binds to HSP90 {full-length human, full-length yeast or N-terminal domain HSP90} and the anisotropy {rotation of the probe:protein complex} is measured.
Test compound is added to the assay plate, left to equilibrate and the anisotropy measured again. Any change in anisotropy is due to competitive binding of compound to HSP90, thereby releasing probe.
Chemicals are of the highest purity commercially available and all aqueous solutions are made up in AR water. • 1) Costar 96-well black assay plate #3915 • 2) Assay buffer of (a)100 mM Tris pH7.4; (b) 20 mM KCl; (c) 6 mM MgCl2. Stored at room temperature. • 3) BSA (bovine serum albumen) 10 mg/ml (New England Biolabs # B9001S) • 4) 20 mM probe in 100% DMSO stock concentration. Stored in the dark at RT. Working concentration is 200 nM diluted in AR water and stored at 4° C. Final concentration in assay 80 nM. • 5) E. coli expressed human full-length HSP90 protein, purified >95% (see, e.g., Panaretou et al., 1998) and stored in 50 μL aliquots at −80° C.
Protocol • 1) Add 100 μl 1× buffer to wells 11 A and 12A (=FP BLNK) • 2) Prepare assay mix—all reagents are kept on ice with a lid on the bucket as the probe is light-sensitive.
• 3) Aliquot 100 μl assay mix to all other wells • 4) Seal plate and leave in dark at room temp for 20 minutes to equilibrate
Compound Dilution Plate—1×3 Dilution Series • 1) In a clear 96-well v-bottom plate—{# VWR 007/008/257} add 10 μl 100% DMSO to wells B1 to H11 • 2) To wells A1 to A11 add 17.5 μl 100% DMSO • 3) Add 2.5 μl cpd to A1. This gives 2.5 mM {50×} stock cpd—assuming cpds 20 mM. • 4) Repeat for wells A2 to A10. Control in columns 11 and 12. • 5) Transfer 5 μl from row A to row B—not column 12. Mix well. • 6) Transfer 5 μl from row B to row C. […] In column 11 {provides standard curve} only add compound B11-H11. Add 2 μl of 100 mM standard cpd to wells B12-H12 {is positive control } • 13)The Z′ factor is calculated from zero controls and positive wells. It typically gives a value of 0.7-0.9.
The compounds tested in the above assay were assigned to one of two activity ranges, namely A=<10 μM; B=>10 μM, and those assignments are reported above.

T2 sequence (P08238 whole entry): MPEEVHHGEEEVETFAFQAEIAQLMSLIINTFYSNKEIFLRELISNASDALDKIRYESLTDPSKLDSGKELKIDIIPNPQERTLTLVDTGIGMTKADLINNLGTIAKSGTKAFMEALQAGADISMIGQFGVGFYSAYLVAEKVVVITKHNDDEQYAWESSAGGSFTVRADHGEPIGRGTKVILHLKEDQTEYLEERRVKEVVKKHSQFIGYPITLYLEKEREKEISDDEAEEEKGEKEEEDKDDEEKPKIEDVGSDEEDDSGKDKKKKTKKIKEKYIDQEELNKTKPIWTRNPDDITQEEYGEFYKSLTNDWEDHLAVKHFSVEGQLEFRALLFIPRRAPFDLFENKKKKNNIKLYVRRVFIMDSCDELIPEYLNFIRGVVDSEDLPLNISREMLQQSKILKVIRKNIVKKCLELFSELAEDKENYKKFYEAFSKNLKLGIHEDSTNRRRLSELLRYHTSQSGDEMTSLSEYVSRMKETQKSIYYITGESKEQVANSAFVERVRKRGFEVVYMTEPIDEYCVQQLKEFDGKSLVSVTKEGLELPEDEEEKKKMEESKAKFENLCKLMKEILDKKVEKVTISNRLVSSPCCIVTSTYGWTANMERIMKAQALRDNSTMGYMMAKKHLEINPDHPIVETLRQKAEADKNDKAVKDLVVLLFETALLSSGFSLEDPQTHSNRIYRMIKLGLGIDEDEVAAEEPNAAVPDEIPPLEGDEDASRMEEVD

`O=S(=O)(c1ccsc1)N1CCN(c2c[nH]nc2-c2cc(Cl)c(O)cc2O)CC1` [Example 48] and `O=C(O)CN1CCN(c2c[nH]nc2-c2cc(Cl)c(O)cc2O)CC1` [Example 46] cannot be ordered by IC50: under 10 µM for the first, under 10 µM for the second.

`CCOC(=O)CN1CCN(c2c[nH]nc2-c2cc(Cl)c(O)cc2O)CC1` [Example 45] and `CC(=O)c1ccc(CN2CCN(c3c[nH]nc3-c3cc(Cl)c(O)cc3O)CC2)cc1` [Example 47] cannot be ordered by IC50: under 10 µM for the first, under 10 µM for the second.

`OCc1[nH]nc(-c2cc(Cl)c(O)cc2O)c1N1CCNCC1` [Example 50, 4-Chloro-6-(5-hydroxymethyl-4-piperazin-1-yl-1H-pyrazol-3-yl)-benzene-1,3-diol] and `Cc1[nH]nc(-c2cc(Cl)c(O)cc2O)c1N1CCNCC1` [Example 49, 4-Chloro-6-(5-methyl-4-piperazin-1-yl-1H-pyrazol-3-yl)-benzene-1,3-diol] cannot be ordered by IC50: under 10 µM for the first, under 10 µM for the second.

`CC(=O)Nc1ccc(-c2n[nH]cc2N2CCNCC2)c(O)c1` [Example 53, 3-[4-Acetamido-2-hydroxyphenyl]-4-(piperazin-1-yl)-1H-pyrazole] and `Cc1c[nH]c2cc(O)c(-c3n[nH]cc3N3CCNCC3)cc12` [Example 54, 3-Methyl-5-(4-piperazin-1-yl-1H-pyrazol-3-yl)-1H-indol-6-ol] cannot be ordered by IC50: over 10 µM for the first, over 10 µM for the second.

Compared with `COc1ccc(CC(=O)N2CCN(c3c[nH]nc3-c3cc(Cl)c(O)cc3O)CC2)cc1` [Example 42], `CNC(=O)c1cccc(CN2CCN(c3c[nH]nc3-c3cc(Cl)c(O)cc3O)CC2)c1` [Example 44] is lower in IC50: over 10 µM for the first, under 10 µM for the second.

System: not listed separately
Assay: Sulforhodamine B (SRB) growth inhibition assay
Assay type: cell-based
Conditions: SRB growth arrest assay
Procedure: A growth inhibition assay was also employed for the evaluation of candidate HSP90 inhibitors:
Day 1 • 1) Determine cell number by haemocytometer. • 2) Using an 8 channel multipipettor, add 160 μl of the cell suspension (3600 cells/well or 2×10^4 cells/ml) to each well of a 96-well microtitre plate. • 3) Incubate overnight at 37° C. in a CO2 incubator.
Day 2 • 4) Stock solutions of drugs are prepared, and serial dilutions of each drug are performed in medium to give final concentrations in wells. • 5) Using a multipipettor, 40 μl of drug (at 5× final concentration) is added to quadruplicate wells. • 6) Control wells are at either side of the 96 well plates, where 40 μl of medium is added. • 7) Incubate plates in CO2 incubator for 4 days (48 hours).
Day 6 • 8) Tip off medium into sink and immerse plate slowly into 10% ice cold trichloroacetic acid (TCA). […] Leave for 15 mins. • 12) Wash off unbound SRB stain with four washes of 1% acetic acid. • 13) Dry plates in incubator. • 14) Solubilise SRB using 100 μl of 10 mM Tris base and put plates on plate shaker for 5 mins. • 15) Determine absorbance at 540 nm using a plate reader. Calculate mean absorbance for quadruplicate wells and express as a percentage of value for control, untreated wells. • 16) Plot % absorbance values versus log drug concentration and determine the IC50.

`Oc1cc(O)c(-c2n[nH]cc2N2CCNCC2)cc1Cl` [Example 2, 4-Chloro-6-(4-piperazin-1-yl-1H-pyrazol-3-yl)-benzene-1,3-diol] gave an IC50 of under 50 µM.
